# Measurements from patent US12076307B2, “Compositions for prevention or treatment of acute radiation syndrome and other radiation exposure” (priority 2017, dated 2024).
# Tested on: CXCL8
# Test: CXCL8 release in HaCaT cells treated with CM or rhHMGB1
# Format: cell-based, human
# Settings: rhHMGB1-treated cells
# Protocol: An additional experiment was tested for assessing whether EC-18 treatment leads to early termination of the RIPK1/3-MLKL-mediated downstream necroptosis pathway. This was performed by using DAMP-containing conditioned media (CM) harvested from HaCaT cells, irradiated for 48 hrs, and analyzed after 2 or 72 hrs of EC-18 treatment. […] To further confirm that DAMPs in CM contribute to the activation of a necroptosis signaling pathway in a paracrine manner, recombinant human HMGB1 (rhHMGB1) was treated directly to the normal HaCaT cells. The rhHMGB1 elevated the phosphorylation of RIPK1/3 and MLKL after 2 hrs and subsequently released HMGB1 and HSP90 (FIGS. 35C-35D). To evaluate whether EC-18 mitigates the activation of RIPK1/3 and MLKL, 10 or 100 μg/mL of EC-18 was treated before the addition of CM or rhHMGB1. As a result, EC-18 lowered the phosphorylation of RIPK/3 and MLKL in both CM- and rhHMGB1-treated cells after 2 hrs. Release of HMGB1 and Hsp90 was also subsided by EC-18 after 72 hrs of post addition of CM or rhHMGB1 to the cells (FIGS. 35A-35D). TLR4-induced necroptosis signaling pathway caused by DAMP release produces cytokines, such as CXCL8, a chemotactic cytokine for neutrophils. As CXCL8 increases upon tissue damage, it was measured in cells treated with CM or rhHMGB1 as a measure of inflammation. CXCL8 of CM from cells treated with chemo and radiotherapy was used for this evaluation. […] Moreover, rhHMGB1 increased the production of CXCL8, modulated by EC-18.
row,Compound,CXCL8 production
1,"CC(C)S(=O)(=O)c1ccc2nccc(Nc3ccc4scnc4c3)c2c1 [GSK872, reference compound]",significant reduction
2,"CN1C(=O)C(Cc2c[nH]c3ccccc23)NC1=S (centres unmarked) [Necrostin-1, reference compound]",significant reduction
